From paper PMC3458012, “Gliadin Peptides Induce Tissue Transglutaminase Activation and ER-Stress through Ca^2+ Mobilization in Caco-2 Cells” (PLoS ONE, 2012) come the findings set out here.

The subject of experiment [1] is CHOP. The experiment can be described thus: CHOP protein level by western blot. Format: cell-based. The following applies: Caco-2 cells, 24 h, peptides 20 µg/ml, THP 1 µM, normalized to tubulin. The procedure: (§1) Cells were washed with phosphate-buffered saline solution and mechanically harvested in lysis buffer, consisting of 20 mM Tris-HCl, pH 7.5, 150 mM NaCl, 1 mM EDTA, 1 mM dithiotreitol, 0.1% sodium dodecyl sulphate, 1% triton X-100, 1 mM ortovanadate, and inhibitors cocktail (Sigma-Aldrich). After 30 min of incubation on ice, cell extracts were centrifuged at 12,000 g for 30 min at 4°C, to remove cell debris, then 75 µg of total proteins were separated by 10% sodium dodecyl sulphate-polyacrylamide gel electrophoresis and transferred to a membrane. To detect tTG, the blot was treated as described elsewhere. To detect GRP78 and CHOP, the blots were treated with 5% skim milk in phosphate-buffered saline overnight at 4°C, then incubated for 2 h with an anti-GRP78 rabbit polyclonal antibody (H-129) (1∶500; Santa Cruz, CA, USA), or with an anti-CHOP mouse monoclonal antibody (1∶1,500; Santa Cruz), respectively, in phosphate-buffered saline containing 0.1% tween-20. After washing, the blots were incubated for 1 h at room temperature with an anti-rabbit-peroxidase secondary antibody (1∶10,000; Bio-Rad Laboratories), or with an anti-mouse-peroxidase secondary antibody (1∶10,000; Bio-Rad Laboratories), respectively.
On the technique in general: In western blotting, separated proteins are transferred to a membrane and probed.

Experiment [2] deals with intracellular tTG. As to the kind of experiment: Microplate assay of tTG transamidating activity on cell lysates. Format: cell-based. As to conditions: Caco-2 cells. The procedure:
(§2) In situ tTG activity was visualized by using the tTG substrate pentylamine-biotin (Euroclone, Milan, Italy) as reported elsewhere. Caco-2 cells were treated for 30 min with 10 µM ionomycin (Sigma-Aldrich, Milan, Italy), or with different amounts of gliadin peptides, or with 1 µM THP, in the presence of 0.5 mM pentylamine-biotin, before being processed for microscopy observation. To visualize biotin-labeled p31–43 and p57–68 in the cells, peptides needed to be used at a concentration of 0.2 mM. […] Pentylamine-biotin was also used to quantify the tTG transamidating activity by a microplate assay. Briefly, after 30 min of treatment with 20 µg/ml gliadin peptides, or with 1 µM THP, cells were lysed and proteins (25 µg) were coated into the wells of a 96-well plate. The wells were blocked with 10% bovine serum albumin then incubated with 1∶5000 peroxidase-conjugated streptavidin (Euroclone) in 5% bovine serum albumin. To reveal peroxidase activity, 3,3′,5,5′-tetramethylbenzidine (Sigma-Aldrich, Milan, Italy) was added to each well and, after stopping the reaction with H2SO4, absorbances were read at 450 nm.

The subject of experiment [3] is GRP78. The experiment can be described thus: GRP78 mRNA by real-time RT-PCR. As to conditions: Caco-2 cells, 24 h, peptides 20 µg/ml, THP 1 µM, normalized to GAPDH. It is filed as cell-based, human.
For experiment [4], the system named is CHOP. The experiment can be described thus: CHOP mRNA by real-time RT-PCR. Format: cell-based, human. The following applies: Caco-2 cells, 24 h, peptides 20 µg/ml, THP 1 µM, normalized to GAPDH. For orientation: Quantitative PCR measures a nucleic acid by following its amplification.
Experiment [5] has as its system intracellular tTG. As to the kind of experiment: In situ tTG transamidating activity, pentylamine-biotin incorporation, microscopy. It is filed as cell-based. The following applies: Caco-2 cells; for In situ tTG crosslinking activity (fluorescence of pentylamine-biotin incorporation): 30 min, complete medium, peptides 20 µg/ml, ionomycin 10 µM, THP 1 µM, 0.5 mM pentylamine-biotin. As to the method: as §2

For experiment [6], the system named is GRP78. As to the kind of experiment: GRP78 protein level by western blot. Format: cell-based. As to conditions: Caco-2 cells, 24 h, THP 1 µM, normalized to tubulin. As to the method: as §1
A further experiment concerns Caco-2 cells. Format: cell-based. The procedure: Intracellular Ca^2+ concentration ([Ca^2+]i) was measured in Caco-2 cells by single cell computer-assisted videoimaging using the Ca^2+ indicator Fura-2 acetoxymethyl ester, as previously described, [22]. Gliadin peptides were loaded at concentrations between 0.2 and 20 µg/ml for 30 min at 37°C in normal Krebs solution containing the following (in mM): 5.5 KCl, 160 NaCl, 1.2 MgCl2, 1.5 CaCl2, 10 glucose, and 10 Hepes-NaOH, pH 7.4. To selectively deplete intracellular Ca^2+ stores, experiments were performed in the presence of thapsigargin (THP) (1 µM), an irreversible and selective inhibitor of the sarco(endo)plasmic reticulum Ca^2+ ATPase, and in the presence of the mitochondrial uncoupler carbonylcyanide-p-trifluoromethoxyphenylhydrazone (FCCP) (300 nm).

Ends that are not written are not given here.

In the case of `C/C=C(/C)C(=O)O[C@H]1C(C)=C2[C@H]([C@@H]1OC(=O)CCCCCCC)[C@@](C)(OC(C)=O)C[C@H](OC(=O)CCC)[C@@]1(O)[C@H]2OC(=O)[C@@]1(C)O` [THP, thapsigargin], the “Increase of CHOP protein expression” value in the experiment with CHOP [1] was “three-fold”. Also, the “Increase of tTG activity versus cells exposed to pentylamine-biotin alone” value in the experiment with intracellular tTG [2] (30 min, peptides 20 µg/ml or THP 1 µM, 25 µg lysate, absorbance 450 nm, at least 3 experiments in triplicate) is reported as “similar”. The “Increase of GRP78 mRNA expression with respect to untreated cells” value in the experiment on GRP78 [3] was “about 30 fold”. The “Increase of CHOP mRNA expression” value in the experiment on CHOP [4] is given as “about 14 fold”. For the same compound, the “In situ tTG crosslinking activity (fluorescence of pentylamine-biotin incorporation)” value (shortened to “In situ tTG crosslinking activity”) with intracellular tTG [5] is on record as “sufficient to activate intracellular tTG”. In addition, the “In situ tTG activation in Ca2+-free medium” value in the experiment with intracellular tTG [5] (phosphate-buffered saline without Ca2+ and Mg2+) is given as “sufficient to activate intracellular tTG”. Further, in the experiment with GRP78 [6], the “Increase of GRP78 protein expression” value was “about five-fold”.
Consider `NCCSSCCN` [cystamin], for which, in the experiment with intracellular tTG [2] (microplate assay, three experiments in triplicate), the “Effect of cystamin pretreatment on tTG activity induced by ionomycin or p31–43” value is recorded as “significant reduction of tTG activity”. Moreover, the “Inhibition of in situ tTG activation induced by ionomycin and p31–43” value with intracellular tTG [5] (cystamin 200 µM added 5 min before treatment) is given as “inhibited the tTG activation”.
LGQQQPFPPQQPY [p31–43]: in the experiment on Caco-2 cells, the “EC50 of [Ca2+]i increase” value amounted to 0.2 µg/mL.
For LPQFEEIRNLALQTLPAM [p229–246], in the experiment on intracellular tTG [5], the “In situ tTG crosslinking activity” value was “fluorescence intensity did not increase”.
For “PLIRPLLARPAK [pHTP, irrelevant control peptide, 537–548 region of the human thyroid peroxidase]”, the “In situ tTG crosslinking activity” value in the experiment on intracellular tTG [5] is listed as “fluorescence intensity did not increase”.
With QLQPFPQPQLPY [p57–68], in the experiment with Caco-2 cells, the “EC50 of [Ca2+]i increase” value is 0.9 µg/mL.
As for “QQPQDAVQPF [pCTR, irrelevant control peptide … from durum wheat]”, the “[Ca2+]i increase with respect to the basal value” with Caco-2 cells (Caco-2 cells, 20 µg/ml, normal Krebs solution) is listed as “did not affect”. The “In situ tTG crosslinking activity” value with intracellular tTG [5] is “fluorescence intensity did not increase”.
